Results reported in patent US20230271954A1 (Gossamer Bio Services, Inc., priority 2020, published 2023).
Counter-ions that a name gives are not always drawn.

Assays:
[1] = target: DGKα (Homo sapiens, UniProt P23743); experiment: DGKα biochemical assay (ADP-Glo); conditions: read-out: DGK α IC50
Method in brief: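 ADP-Glo kinase assay using OAG/PS (1:2) lipid substrate, sonicated, in HEPES pH 7.0 buffer with MgCl2, CaCl2, DTT, BSA, Triton X-100. Enzyme preincubated with compound 30 min at RT; substrate with ATP (DGKα: 400 μM) added, 45 min RT. Luminescence read; % inhibition vs DMSO and no-enzyme controls.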

[2] = target: T1, DGKζ (Homo sapiens, UniProt Q13574); experiment: DGKζ biochemical assay (ADP-Glo); conditions: read-out: DGK ζ IC50
T1 construct: purchased Carna 12-110
T1 sequence (Q13574 1-929 isoform Q13574-4): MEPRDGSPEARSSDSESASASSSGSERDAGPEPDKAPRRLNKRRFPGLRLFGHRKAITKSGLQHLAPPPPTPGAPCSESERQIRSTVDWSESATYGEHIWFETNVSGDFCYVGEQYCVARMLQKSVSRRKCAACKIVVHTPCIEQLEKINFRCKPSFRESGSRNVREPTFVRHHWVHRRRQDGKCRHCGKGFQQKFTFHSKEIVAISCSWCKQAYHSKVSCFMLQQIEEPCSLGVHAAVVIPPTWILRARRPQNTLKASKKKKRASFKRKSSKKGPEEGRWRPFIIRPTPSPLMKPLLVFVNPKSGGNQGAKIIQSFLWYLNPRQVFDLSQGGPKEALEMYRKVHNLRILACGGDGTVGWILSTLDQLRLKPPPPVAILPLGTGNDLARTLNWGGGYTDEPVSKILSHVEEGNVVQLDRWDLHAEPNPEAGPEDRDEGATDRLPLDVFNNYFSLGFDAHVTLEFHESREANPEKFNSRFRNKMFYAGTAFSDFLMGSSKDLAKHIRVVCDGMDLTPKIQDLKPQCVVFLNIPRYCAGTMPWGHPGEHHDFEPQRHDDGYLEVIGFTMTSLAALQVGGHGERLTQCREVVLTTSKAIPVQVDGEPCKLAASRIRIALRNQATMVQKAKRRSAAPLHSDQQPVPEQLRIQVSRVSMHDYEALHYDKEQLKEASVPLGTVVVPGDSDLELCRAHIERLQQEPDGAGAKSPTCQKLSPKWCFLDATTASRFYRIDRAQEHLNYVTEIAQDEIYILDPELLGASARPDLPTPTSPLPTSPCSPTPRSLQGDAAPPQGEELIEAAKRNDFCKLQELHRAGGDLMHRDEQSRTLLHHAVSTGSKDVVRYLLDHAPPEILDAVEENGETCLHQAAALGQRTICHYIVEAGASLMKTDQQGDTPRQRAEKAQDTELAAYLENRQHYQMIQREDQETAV

Chain of DGKα (P23743 whole entry): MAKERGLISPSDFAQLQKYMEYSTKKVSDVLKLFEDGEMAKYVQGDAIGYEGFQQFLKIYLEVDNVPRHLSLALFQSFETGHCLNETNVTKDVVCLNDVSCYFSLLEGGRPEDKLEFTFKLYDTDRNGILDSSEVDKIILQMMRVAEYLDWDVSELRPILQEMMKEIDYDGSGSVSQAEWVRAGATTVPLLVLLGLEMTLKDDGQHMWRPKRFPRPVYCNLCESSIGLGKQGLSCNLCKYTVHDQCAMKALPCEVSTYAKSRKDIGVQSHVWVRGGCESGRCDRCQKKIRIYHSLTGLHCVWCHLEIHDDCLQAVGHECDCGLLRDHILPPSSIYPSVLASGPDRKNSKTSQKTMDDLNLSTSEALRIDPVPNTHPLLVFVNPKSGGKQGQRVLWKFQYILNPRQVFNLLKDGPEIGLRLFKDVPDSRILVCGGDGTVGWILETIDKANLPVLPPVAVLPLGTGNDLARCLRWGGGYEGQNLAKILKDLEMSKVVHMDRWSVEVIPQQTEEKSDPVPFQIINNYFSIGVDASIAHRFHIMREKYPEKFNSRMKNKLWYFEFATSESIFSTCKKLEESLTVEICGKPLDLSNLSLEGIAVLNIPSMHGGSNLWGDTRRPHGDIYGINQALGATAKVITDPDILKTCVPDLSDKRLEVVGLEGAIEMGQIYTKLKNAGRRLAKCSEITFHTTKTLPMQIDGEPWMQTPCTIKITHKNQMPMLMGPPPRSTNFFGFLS

For Cn1c(=O)cc(N(C)[C@H]2CC[C@@H](N(CC3COCCO3)c3ccc4c(c3)OCO4)CC2)c2nc(C#N)ccc21 (stereo partly drawn) [Example 181, cis-8-((4-(((1,4-dioxan-2-yl)methyl)(benzo[d][1,3]dioxol-5-yl)amino)cyclohexyl)(methyl)amino)-5-methyl-6-oxo-5,6-dihydro-1,5-naphthyridine-2-carbonitrile], which IC50 [1] is on record?
The IC50 was 10 to 100 nM.

What about the IC50 [2] of the same compound?
Its IC50 is 100 to 1000 nM.

Which results are given for Cn1c(=O)c(C#N)c(N(C)[C@H]2CC[C@@H](N(CC3COCCO3)c3ccc4c(c3)OCCO4)CC2)c2nc(C#N)ccc21 (stereo partly drawn) [Example 182, cis-8-((4-(((1,4-dioxan-2-yl)methyl)(2,3-dihydrobenzo[b][1,4]dioxin-6-yl)amino)cyclohexyl) (methyl)amino)-5-methyl-6-oxo-5,6-dihydro-1,5-naphthyridine-2,7-dicarbonitrile]?
IC50 [1]: ≥ 1000 nM; IC50 [2]: < 10 nM

What does the source list for Cn1c(=O)cc(N(C)[C@H]2CC[C@@H](N(CC3COCCO3)c3ccc4c(c3)OCCO4)CC2)c2nc(C#N)ccc21 (stereo partly drawn) [Example 183, cis-8-((4-(((1,4-dioxan-2-yl)methyl)(2,3-dihydrobenzo[b][1,4]dioxin-6-yl)amino)cyclohexyl) (methyl)amino)-5-methyl-6-oxo-5,6-dihydro-1,5-naphthyridine-2-carbonitrile]?
IC50 [1]: 100 to 1000 nM; IC50 [2]: 100 to 1000 nM

What does the source list for Cc1cc(F)ccc1N(CC1CC(F)(F)C1)[C@H]1CC[C@@H](N(C)c2cc(=O)n(C)c3ccc(C#N)nc23)CC1 [Example 184, cis-8-((-4-(((3,3-difluorocyclobutyl)methyl)(4-fluoro-2-methylphenyl)amino)cyclohexyl)(methyl)amino)-5-methyl-6-oxo-5,6-dihydro-1,5-naphthyridine-2-carbonitrile]?
IC50 [1]: 100 to 1000 nM; IC50 [2]: 10 to 100 nM

How did the IC50 [1] turn out when Cc1cc(F)ccc1N(CC1COCCN1C)[C@H]1CC[C@H](N(C)c2c(C#N)c(=O)n(C)c3ccc(C#N)nc23)CC1 (stereo partly drawn) [Example 185, trans-8-((-4-((4-fluoro-2-methylphenyl)((4-methylmorpholin-3-yl)methyl)amino)cyclohexyl) (methyl)amino)-5-methyl-6-oxo-5,6-dihydro-1,5-naphthyridine-2,7-dicarbonitrile] was run?
Its IC50 is 100 to 1000 nM.

And the IC50 [2]?
Its IC50 is 100 to 1000 nM.

Which IC50 [1] does the source give for Cc1cc(F)ccc1N(CC1CN(C)CCO1)[C@H]1CC[C@H](N(C)c2c(C#N)c(=O)n(C)c3ccc(C#N)nc23)CC1 (stereo partly drawn) [Example 186, trans-8-((-4-((4-fluoro-2-methylphenyl)((4-methylmorpholinium-2-yl)methyl)amino)cyclohexyl) (methyl)amino)-5-methyl-6-oxo-5,6-dihydro-1,5-naphthyridine-2,7-dicarbonitrile trifluoroacetate] here?
The IC50 was 100 to 1000 nM.

And the IC50 [2]?
The IC50 was no less than 1000 nM.

With CN1C(=O)COc2ccc(N(CC3COCCO3)[C@H]3CC[C@@H](N(C)c4c(C#N)c(=O)n(C)c5ccc(C#N)nc45)CC3)cc21 (stereo partly drawn) [Example 187, cis-8-((4-(((1,4-dioxan-2-yl)methyl)(4-methyl-3-oxo-3,4-dihydro-2H-benzo[b][1,4]oxazin-6-yl)amino)cyclohexyl)(methyl)amino)-5-methyl-6-oxo-5,6-dihydro-1,5-naphthyridine-2,7-dicarbonitrile] as the compound, how does the IC50 [1] read?
Its IC50 is 100 to 1000 nM.

And the IC50 [2]?
Its IC50 is 100 to 1000 nM.

With Cn1c(=O)cc(N(C)[C@H]2CC[C@@H](N(CC3COCCO3)c3ccc(F)c(OC(F)F)c3)CC2)c2nc(C#N)ccc21 (stereo partly drawn) [Example 188, cis-8-((-4-(((1,4-dioxan-2-yl)methyl)(3-(difluoromethoxy)-4-fluorophenyl)amino)cyclohexyl) (methyl)amino)-5-methyl-6-oxo-5,6-dihydro-1,5-naphthyridine-2-carbonitrile] as the compound, how does the IC50 [1] read?
Its IC50 is 100 to 1000 nM.

And the IC50 [2]?
Its IC50 is 100 to 1000 nM.

Cn1c(=O)cc(N(C)[C@H]2CC[C@@H](N(CC3CC3)c3ccc4c(c3)COC4)CC2)c2nc(C#N)ccc21 [Example 192, cis-8-((4-((cyclopropylmethyl)(1,3-dihydroisobenzofuran-5-yl)amino)cyclohexyl) (methyl)amino)-5-methyl-6-oxo-5,6-dihydro-1,5-naphthyridine-2-carbonitrile] was tested. Which IC50 [1] did it give?
Its IC50 is 10 to 100 nM.

And the IC50 [2]?
The IC50 was 100 to 1000 nM.

For Cn1c(=O)c(C#N)c(N(C)[C@H]2CC[C@@H](N(CC3CC3)c3ccc4c(c3)COC4)CC2)c2nc(C#N)ccc21 [Example 193, cis-8-((4-((cyclopropylmethyl)(1,3-dihydroisobenzofuran-5-yl)amino)cyclohexyl) (methyl)amino)-5-methyl-6-oxo-5,6-dihydro-1,5-naphthyridine-2,7-dicarbonitrile], which IC50 [1] is on record?
The IC50 was no less than 1000 nM.

And the IC50 [2]?
The IC50 was no less than 1000 nM.

For Cn1c(=O)cc(N(C)[C@H]2CC[C@@H](N(CC(C)(C)CO)c3ccc(F)cc3)CC2)c2nc(C#N)ccc21 [Example 194, cis-8-((-4-((4-fluorophenyl)(3-hydroxy-2,2-dimethylpropyl)amino)cyclohexyl)(methyl)amino)-5-methyl-6-oxo-5,6-dihydro-1,5-naphthyridine-2-carbonitrile], which IC50 [1] is on record?
Its IC50 is 100 to 1000 nM.

What about the IC50 [2] of the same compound?
Its IC50 is no less than 1000 nM.

With CN1C(=O)COc2ccc(N(CC3CC3)[C@H]3CC[C@@H](N(C)c4cc(=O)n(C)c5ccc(C#N)nc45)CC3)cc21 [Example 197, cis-8-((4-((cyclopropylmethyl)(4-methyl-3-oxo-3,4-dihydro-2H-benzo[b][1,4]oxazin-6-yl)amino)cyclohexyl)(methyl)amino)-5-methyl-6-oxo-5,6-dihydro-1,5-naphthyridine-2-carbonitrile] as the compound, how does the IC50 [1] read?
Its IC50 is 100 to 1000 nM.

What about the IC50 [2] of the same compound?
The IC50 was no less than 1000 nM.

Which IC50 [1] does the source give for CN1C(=O)COc2ccc(N(CC3CC3)[C@H]3CC[C@@H](N(C)c4c(C#N)c(=O)n(C)c5ccc(C#N)nc45)CC3)cc21 [Example 198, cis-8-((4-((cyclopropylmethyl)(4-methyl-3-oxo-3,4-dihydro-2H-benzo[b][1,4]oxazin-6-yl)amino)cyclohexyl)(methyl)amino)-5-methyl-6-oxo-5,6-dihydro-1,5-naphthyridine-2,7-dicarbonitrile] here?
The IC50 was no less than 1000 nM.

And the IC50 [2]?
The IC50 was no less than 1000 nM.

Which results are given for Cn1c(=O)c(C#N)c(N(C)[C@H]2CC[C@@H](N(CC3CC3)c3cccc4c3oc(=O)n4C)CC2)c2nc(C#N)ccc21 [Example 200, cis-8-((-4-((cyclopropylmethyl)(3-methyl-2-oxo-2,3-dihydrobenzo[d]oxazol-7-yl)amino)cyclohexyl) (methyl)amino)-5-methyl-6-oxo-5,6-dihydro-1,5-naphthyridine-2,7-dicarbonitrile]?
IC50 [1]: ≥ 1000 nM; IC50 [2]: ≥ 1000 nM

Which IC50 [1] does the source give for Cn1c(=O)c(C#N)c(N(C)[C@H]2CC[C@@H](N(C[C@H]3C[C@H](O)C3)c3ccc(F)cc3)CC2)c2nc(C#N)ccc21 [Example 201, cis-8-((-4-((4-fluorophenyl)((trans-3-hydroxycyclobutyl)methyl)amino)cyclohexyl) (methyl)amino)-5-methyl-6-oxo-5,6-dihydro-1,5-naphthyridine-2,7-dicarbonitrile] here?
The IC50 was less than 10 nM.

And the IC50 [2]?
The IC50 was no less than 1000 nM.

How did the IC50 [1] turn out when Cn1c(=O)c(C#N)c(N(C)[C@H]2CC[C@@H](N(CC3CC3)c3ccc4c(c3)C(=O)NC4)CC2)c2nc(C#N)ccc21 [Example 202, cis-8-((-4-((cyclopropylmethyl)(3-oxoisoindolin-5-yl)amino)cyclohexyl)(methyl)amino)-5-methyl-6-oxo-5,6-dihydro-1,5-naphthyridine-2,7-dicarbonitrile] was run?
The IC50 was no less than 1000 nM.

And the IC50 [2]?
The IC50 was no less than 1000 nM.

How did the IC50 [1] turn out when Cn1c(=O)c(F)c(N(C)[C@H]2CC[C@@H](N(CC3COCCO3)c3ccc(F)cc3)CC2)c2nc(C#N)ccc21 (stereo partly drawn) [Example 203, cis-8-((-4-(((1,4-dioxan-2-yl)methyl)(4-fluorophenyl)amino)cyclohexyl)(methyl)amino)-7-fluoro-5-methyl-6-oxo-5,6-dihydro-1,5-naphthyridine-2-carbonitrile] was run?
The IC50 was less than 10 nM.

What about the IC50 [2] of the same compound?
The IC50 was 100 to 1000 nM.

How did the IC50 [1] turn out when CN1Cc2ccc(N(CC3CC3)[C@H]3CC[C@@H](N(C)c4c(C#N)c(=O)n(C)c5ccc(C#N)nc45)CC3)cc2C1=O [Example 204, cis-8-((-4-((cyclopropylmethyl)(2-methyl-3-oxoisoindolin-5-yl)amino)cyclohexyl)(methyl)amino)-5-methyl-6-oxo-5,6-dihydro-1,5-naphthyridine-2,7-dicarbonitrile] was run?
The IC50 was no less than 1000 nM.

What about the IC50 [2] of the same compound?
The IC50 was no less than 1000 nM.

For Cn1c(=O)c(F)c(N(C)[C@H]2CC[C@@H](N(CC3COCCO3)c3ccc(F)cc3F)CC2)c2nc(C#N)ccc21 (stereo partly drawn) [Example 205, cis-8-((-4-(((1,4-dioxan-2-yl)methyl)(2,4-difluorophenyl)amino)cyclohexyl)(methyl)amino)-7-fluoro-5-methyl-6-oxo-5,6-dihydro-1,5-naphthyridine-2-carbonitrile], which IC50 [1] is on record?
The IC50 was 10 to 100 nM.

What about the IC50 [2] of the same compound?
The IC50 was 10 to 100 nM.

Cn1c(=O)c(C#N)c(N(C)[C@H]2CC[C@@H](N(C(=O)C3CC3)c3ccc(F)cc3)CC2)c2nc(C#N)ccc21 [Example 206, cis-N-(4-((3,6-dicyano-1-methyl-2-oxo-1,2-dihydro-1,5-naphthyridin-4-yl)(methyl)amino)cyclohexyl)-N-(4-fluorophenyl)cyclopropanecarboxamide] was tested. Which IC50 [1] did it give?
Its IC50 is 10 to 100 nM.

And the IC50 [2]?
The IC50 was no less than 1000 nM.

What does the source list for Cn1c(=O)oc2ccc(N(CC3CC3)[C@H]3CC[C@@H](N(C)c4c(C#N)c(=O)n(C)c5ccc(C#N)nc45)CC3)cc21 [Example 207, cis-8-((-4-((cyclopropylmethyl)(3-methyl-2-oxo-2,3-dihydrobenzo[d]oxazol-5-yl)amino)cyclohexyl) (methyl)amino)-5-methyl-6-oxo-5,6-dihydro-1,5-naphthyridine-2,7-dicarbonitrile]?
IC50 [1]: ≥ 1000 nM; IC50 [2]: ≥ 1000 nM

For Cn1c(=O)cc(N(C)[C@H]2CC[C@@H](N(C(=O)C3CC3)c3ccc(F)cc3)CC2)c2nc(C#N)ccc21 [Example 208, cis-N-(4-((6-cyano-1-methyl-2-oxo-1,2-dihydro-1,5-naphthyridin-4-yl)(methyl)amino)cyclohexyl)-N-(4-fluorophenyl)cyclopropanecarboxamide], which IC50 [1] is on record?
Its IC50 is 100 to 1000 nM.

And the IC50 [2]?
Its IC50 is no less than 1000 nM.
